Measurements from US11415571B2, “Large scale organoid analysis” (Tempus Labs, Inc., priority 2019, dated 2022).

What was measured:
Assay in all cases: caspase 3/7 apoptosis assay, olaparib dilution series on tumor organoids
Type in all cases: cell-based, human
Conditions in all cases: tumor without BRCA1 or BRCA2 mutation
[1] = system: tumor organoid culture line 10423-12001
Procedure: (§1) Tumor biopsies were collected from four individuals: UK1393, 10423-12001, 10524-12001, and 10941-12002. The tumors were genotyped and determined not carry BRCA1 or BRCA2 mutations. As such, according to conventional guidance, the tumors are not indicated for first-line therapy with a PARP inhibitor. In order to test whether these tumors may still be sensitive to PARP inhibitors, despite not carrying a BRCA1 or BRCA2 mutation, tumor organoids were cultured using cells from the biopsied material.
(§2) Briefly, cells within each of the biopsied tumor samples were dissociated and cultured to establish a tumor organoid culture line from the tumor of each individual. Single tumor organoids from the tumor organoid culture lines were collected and plated, individually, into wells of a multiwell plate with culture medium. A series of six concentrations of olaparib, in a 5-fold serial dilution, were established for the tumor organoids derived from each individual, as well as negative controls. After incubation with olaparib, a caspase 3/7 apoptosis assay was performed in each well, to determine the sensitivity of each tumor organoid to the respective concentration of olaparib. Results of the […] dilution series experiments are plotted in FIG. 3.

[2] = system: tumor organoid culture line 10524-12001
Procedure: as §1, §2

[3] = system: tumor organoid culture line 10941-12002
Procedure: as §1, §2

[4] = system: tumor organoid culture line UK1393
Procedure: as §1, §2

## O=C(c1cc(Cc2n[nH]c(=O)c3ccccc23)ccc1F)N1CCN(C(=O)C2CC2)CC1 [Olaparib]
[1]
  sensitivity to olaparib: fairly insensitive
[2]
  sensitivity to olaparib: fairly insensitive
[3]
  sensitivity to olaparib: fairly insensitive
[4]
  sensitivity to olaparib compared with the other tumor organoid culture lines: more than 100 fold
